One may read the IC50 as the concentration that inhibits the measured activity by half.

Test [1] in a line: Induction of cell differentiation in human U937 cells assessed as upregulation of CD14 at 0.1 uM after 72 hrs by flow cytometry (reference value: 4.3%). The note with it: U-937. Type of test: functional, cell-based. For orientation: In flow cytometry, cells or beads pass a laser one at a time.
The subject of test [2] is K562. The test can be described thus: Induction of phagocytosis in human K562 cells at 0.1 uM preincubated for 4 to 6 days followed by addition of fluorescent latex beads measured after 2 hrs by flow cytometry. Type of test: functional, cell-based.
For test [3], the system named is U-937. The test can be described thus: Induction of phagocytosis in human U937 cells at 0.1 uM measured using fluorescent latex beads after 2 hrs by flow cytometry. Type of test: functional, cell-based.
The nature of test [4]: Induction of cell differentiation in human U937 cells assessed as upregulation of CD68 at 0.1 uM after 72 hrs by flow cytometry (reference value: 5.9%). The test is classed as functional, cell-based. The note with it: U-937.
Test [5] relates to K562. The test can be described thus: Induction of cell differentiation in human K562 cells assessed as upregulation of CD14 at 0.1 uM after 72 hrs by flow cytometry (reference value: 6.4%). The test is classed as functional.
The nature of test [6]: Cell cycle arrest in human Jurkat T cells assessed as accumulation at sub G1 phase at 12.5 ug/ml after 24 hrs by propidium iodide staining based flow cytometry (reference value: 0.9%). Type of test: functional.
The test system of test [7] is K562. Description: Induction of cell death in human K562 cells at 12.5 to 50 ug/ml after 48 hrs. The test is classed as functional, cell-based.
Test [8] in a line: Cytotoxicity against human Jurkat T cells assessed as growth inhibition after 48 hrs by MTT assay. Type of test: functional, cell-based.
Test [9] is described as follows: Induction of cell differentiation in human U937 cells assessed as upregulation of CD68 at 12.5 ug/ml after 72 hrs by flow cytometry (reference value: 5.9%). The test is classed as functional, cell-based. The note with it: U-937.
Test [10] has as its system Jurkat. The test can be described thus: Induction of apoptosis in human Jurkat T cells assessed as procaspase 3 degradation at 6.25 to 50 ug/ml after 24 hrs by Western blot analysis. Type of test: functional, cell-based. On the technique in general: Immunoblotting shows a protein as a band on a membrane.
Test [11] in a line: Cell cycle arrest in human Jurkat T cells assessed as accumulation at sub G1 phase at 50 ug/ml after 24 hrs by propidium iodide staining based flow cytometry (reference value: 0.9%). Type of test: functional.
Test [12] has as its system Jurkat. Description: Induction of cell death in human Jurkat T cells. The test is classed as functional, cell-based.
Test [13] in a line: Cytotoxicity against human U937 cells assessed as growth inhibition after 48 hrs by MTT assay. Type of test: functional, cell-based. The following applies: U-937, 48 h. (Tetrazolium dyes change colour on reduction, which living cells bring about.)
The test system of test [14] is U-937. The test can be described thus: Induction of apoptosis in human U937 cells assessed as fragmented chromosomal DNA at 6.25 to 50 ug/ml after 12 to 48 hrs by agarose gel electrophoresis. Type of test: functional, cell-based.
Test [15] has as its system U-937. The test can be described thus: Induction of cell death in human U937 at 12.5 to 25 ug/ml cells after 24 hrs. The test is classed as functional, cell-based.
Test [16] is described as follows: Cell cycle arrest in human Jurkat T cells assessed as accumulation at sub G1 phase at 25 ug/ml after 24 hrs by propidium iodide staining based flow cytometry (reference value: 0.9%). The test is classed as functional.
For test [17], the system named is U-937. Description: Induction of phagocytosis in human U937 cells at 6.25 to 12.5 ug/ml measured using fluorescent latex beads after 2 hrs by flow cytometry relative to control. The test is classed as functional.
For test [18], the system named is K562. The test can be described thus: Induction of cell differentiation in human K562 cells assessed as upregulation of CD14 at 12.5 ug/ml after 72 hrs by flow cytometry (reference value: 6.4%). Type of test: functional.
The nature of test [19]: Cytotoxicity against human Jurkat T cells assessed as growth inhibition after 24 hrs by MTT assay. Type of test: functional, cell-based.
Test [20] is described as follows: Cytotoxicity against human Jurkat T cells assessed as growth inhibition after 12 hrs by MTT assay. The test is classed as functional, cell-based.
The test system of test [21] is Jurkat. The test can be described thus: Induction of apoptosis in human Jurkat T cells assessed as PARP degradation at 50 ug/ml after 24 hrs by Western blot analysis. The test is classed as functional, cell-based.
In test [22] the test system is K562. The test can be described thus: Cytotoxicity against human K562 CML cells assessed as growth inhibition treated with high doses of compound after 48 to 72 hrs by MTT assay. Type of test: functional, cell-based.
For test [23], the system named is U-937. Description: Induction of apoptosis in human U937 cells assessed as procaspase 9 degradation at 6.25 to 50 ug/ml after 24 hrs by Western blot analysis. The test is classed as functional, cell-based.
In test [24] the test system is K562. Description: Cell cycle arrest in human K562 cells assessed as accumulation at sub G1 phase at 50 to 100 ug/ml after 48 hrs by propidium iodide staining based flow cytometry. Type of test: functional.
Test [25] has as its system U-937. Description: Induction of apoptosis in human U937 cells assessed as procaspase 3 degradation at 6.25 to 50 ug/ml after 24 hrs by Western blot analysis. Type of test: functional, cell-based.
The test system of test [26] is K562. Description: Induction of cell differentiation in human K562 cells assessed as upregulation of CD14 at 50 ug/ml after 72 hrs by flow cytometry (reference value: 6.4%). Type of test: functional.
Test [27] in a line: Cytotoxicity against human U937 cells assessed as growth inhibition after 24 hrs by MTT assay. The test is classed as functional, cell-based. The following applies: U-937, 24 h.
Test [28] deals with Jurkat. The test can be described thus: Induction of apoptosis in human Jurkat T cells assessed as fragmented chromosomal DNA at 6.25 to 50 ug/ml after 12 to 48 hrs by agarose gel electrophoresis. The test is classed as functional, cell-based.
Test [29] is described as follows: Cell cycle arrest in human U937 cells assessed as accumulation at sub G1 phase at 50 to 100 ug/ml after 24 hrs by propidium iodide staining based flow cytometry. Type of test: functional. The note with it: U-937.
A short description of test [30]: Induction of cell differentiation in human U937 cells assessed as upregulation of CD14 at 6.25 ug/ml after 72 hrs by flow cytometry (reference value: 4.3%). The note with it: U-937. The test is classed as functional, cell-based.
Test [31] relates to U-937. The test can be described thus: Induction of apoptosis in human U937 cells assessed as PARP degradation at 50 ug/ml after 24 hrs by Western blot analysis. Type of test: functional, cell-based.
Test [32] in a line: Induction of cell differentiation in human U937 cells assessed as upregulation of CD68 at 6.25 ug/ml after 72 hrs by flow cytometry (reference value: 5.9%). The following applies: U-937. Type of test: functional, cell-based.
In test [33] the test system is Jurkat. Description: Induction of apoptosis in human Jurkat T cells assessed as procaspase 9 degradation at 6.25 to 50 ug/ml after 24 hrs by Western blot analysis. The test is classed as functional, cell-based.
Test [34] relates to K562. The test can be described thus: Induction of phagocytosis in human K562 cells at 10 uM incubated for 4 to 6 days followed by fluorescent latex beads addition measured after 2 hrs by flow cytometry. Type of test: functional, cell-based.
A short description of test [35]: Induction of cell differentiation in human U937 cells assessed as upregulation of CD14 at 10 uM after 72 hrs by flow cytometry. The note with it: U-937. Type of test: functional, cell-based.
In test [36] the test system is K562. Description: Induction of cell differentiation in human K562 cells assessed as upregulation of CD14 at 10 uM after 72 hrs by flow cytometry. The test is classed as functional, cell-based.
Test [37] relates to U-937. Description: Induction of phagocytosis in human U937 cells at 10 uM measured using fluorescent latex beads after 2 hrs by flow cytometry. The test is classed as functional, cell-based.

Values after ≈ are worked out from the molar mass of the structure shown. Active and inactive are the calls of the source. The rule behind the calls is not given here.

As to `CCCCCCCCCCCCCC(=O)O[C@@H]1[C@@H](C)[C@@]2(O)[C@@H](C=C(CO)C[C@]3(O)C(=O)C(C)=C[C@@H]23)[C@@H]2C(C)(C)[C@]12OC(C)=O` [PHORBOL MYRISTATE ACETATE], the Activity in test [1] came out at 25%; in [4] it was 39.2%; in the test with K562 [5], 38.1%. The outcome in the test with K562 [2] and in the test on U-937 [3] was Active.
On to `C=C1CCC[C@]2(C)C=C3OC(=O)C(C)=C3C[C@@H]12` [ATRACTYLENOLIDE I], for which the Activity is 7.5% in test [6]; 84.3% in [9]; 32.3% in [11]; 20.3% in [16]; 50% in the test on U-937 [17]; 13.4% with K562 [18]. The Activity with K562 [24] was over 50%; with K562 [26] it was 18.1%; in test [29], over 50%; in [30], 25.6%; in [32], 53.3%. Besides, the result in the test on K562 [7], in the test on Jurkat [10], in the test with Jurkat [12], in the test with U-937 [14], in the test on U-937 [15] and in the test with Jurkat [21] was Active. Also, the result in the test on U-937 [23], in the test with U-937 [25], in the test on Jurkat [28], with U-937 [31] and in the test on Jurkat [33] was Active. The IC50 in test [8] was 24.4 µg/mL (≈ 106 µM); in test [13], 4.23 µg/mL (≈ 18.4 µM); in test [19], 37.6 µg/mL (≈ 163 µM); in test [20] it was 44.7 µg/mL (≈ 194 µM); in [27] it was 14.9 µg/mL (≈ 64.7 µM). For the same compound, the “growth inhibition (GI)” value in the test on K562 [22] is “Active”.
Take `CC[C@@]1(O)C(=O)OCc2c1cc1n(c2=O)Cc2cc3ccccc3nc2-1`: the result (in the test with K562 [34]; in test [35]; with K562 [36]; in the test on U-937 [37]) was inactive.

These data come from ChEMBL document CHEMBL3785017, “Induction of apoptosis and differentiation by atractylenolide-1 isolated from Atractylodes macrocephala in human leukemia cells” (Bioorg Med Chem Lett, 2016).
